# Data as given in patent publication US12479856B2, “Pharmaceutical compounds for the treatment of complement mediated disorders” (Achillion Pharmaceuticals, Inc., priority 2019, dated 2025).
# Molecular target: T1, Human complement C1s enzyme (Homo sapiens, UniProt P09871)
# T1 construct: purified from human serum, Complement Technology, Inc; purchased Complement Technology, Inc; host or cells: human serum (plasma-derived natural protein)
# T1 sequence (P09871 438-688 limits assumed): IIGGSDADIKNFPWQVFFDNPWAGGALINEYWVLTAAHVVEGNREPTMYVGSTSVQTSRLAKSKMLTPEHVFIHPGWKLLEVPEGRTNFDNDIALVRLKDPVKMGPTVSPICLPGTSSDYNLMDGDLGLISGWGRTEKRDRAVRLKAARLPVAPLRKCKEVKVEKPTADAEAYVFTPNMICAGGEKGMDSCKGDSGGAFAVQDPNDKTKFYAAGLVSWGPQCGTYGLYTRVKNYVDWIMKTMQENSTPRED
# T1 sequence (P09871 16-437 partner limits assumed): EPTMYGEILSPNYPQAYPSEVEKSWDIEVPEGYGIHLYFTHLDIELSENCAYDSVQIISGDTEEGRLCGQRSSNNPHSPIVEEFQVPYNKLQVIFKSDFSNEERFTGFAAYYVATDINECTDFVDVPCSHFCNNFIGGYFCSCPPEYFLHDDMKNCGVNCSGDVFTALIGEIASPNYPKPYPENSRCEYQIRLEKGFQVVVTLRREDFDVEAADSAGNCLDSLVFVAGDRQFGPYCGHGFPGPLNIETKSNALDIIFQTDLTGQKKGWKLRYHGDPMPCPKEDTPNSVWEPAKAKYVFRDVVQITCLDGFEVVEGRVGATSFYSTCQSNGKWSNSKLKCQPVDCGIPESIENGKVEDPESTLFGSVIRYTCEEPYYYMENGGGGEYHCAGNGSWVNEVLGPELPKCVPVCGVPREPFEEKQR
# Experiment: Human C1s Enzyme Assay
# Assay type: biochemical
# Settings: Table 1; C1s purified from human serum, 1.16 nM; substrate Z-L-Lys-SBzl; read-out: C1s Protease Activity
# Protocol: Example 4. Human C1s Enzyme Assay
# Human complement C1s enzyme (purified from human serum, Complement Technology, Inc.) at 1.16 nM final concentration is incubated with test compound at various concentrations for 5 min at room temperature in 50 mM Tris, 1 M NaCl, pH 7.5. A synthetic substrate Z-L-Lys-SBzl and DTNB (Ellman's reagent) are added to final concentrations of 100 μM each. Absorbance at 405 nm (A405) is recorded at 30 second intervals for 30 min using a microplate spectrophotometer. IC50 values are calculated by nonlinear regression of complement C1s reaction rates as a function of test compound concentration.
row,SMILES,IC50
1,"NCCCCCNC(=O)[C@@H]1CC2(CN1C(=O)CNC(=O)c1ccc(Oc3ccccc3)cc1)OCCO2 [Compound 26, (8S)—N-(5-Aminopentyl)-7-{2-[(4-phenoxyphenyl)formamido]acetyl}-1,4-dioxa-7-azaspiro[4.4]nonane-8-carboxamide]",> 1000 nM
2,"N=C(N)c1csc(CNC(=O)[C@@H]2CSCN2C(=O)CNC(=O)c2ccc(Oc3ccccc3)cc2)c1 [Compound 4, (4R)—N-[(4-Carbamimidoylthiophen-2-yl)methyl]-3-{2-[(4-phenoxyphenyl)formamido]acetyl}-1,3-thiazolidine-4-carboxamide]",< 100 nM

# Second part, the molecule after the results:
row,IC50,SMILES
1,< 100 nM,"N=C(N)c1csc(CNC(=O)[C@@H]2CC3(CN2C(=O)CNC(=O)c2ccc(Oc4ccccc4)cc2)OCCO3)c1 [Compound 2, (8S)—N-[(4-carbamimidoylthiophen-2-yl)methyl]-7-{2-[(4-phenoxyphenyl)formamido]acetyl}-1,4-dioxa-7-azaspiro[4.4]nonane-8-carboxamide]"
2,> 1000 nM,"Nc1cc(CCNC(=O)[C@@H]2CC3(CN2C(=O)CNC(=O)c2ccc(Oc4ccccc4)cc2)OCCO3)ccn1 [Compound 24, (8S)—N-[2-(2-Aminopyridin-4-yl)ethyl]-7-{2-[(4-phenoxyphenyl)formamido]acetyl}-1,4-dioxa-7-azaspiro[4.4]nonane-8-carboxamide]"
3,> 1000 nM,"CC(=O)Nc1ccc(CNC(=O)[C@@H]2CC3(CN2C(=O)CNC(=O)c2ccc(Oc4ccccc4)cc2)OCCO3)cc1 [Compound 21, (8S)—N-[(4-Acetamidophenyl)methyl]-7-{2-[(4-phenoxyphenyl)formamido]acetyl}-1,4-dioxa-7-azaspiro[4.4]nonane-8-carboxamide]"
4,> 1000 nM,"N=C(N)CCCCNC(=O)[C@@H]1CC2(CN1C(=O)CNC(=O)c1ccc(Oc3ccccc3)cc1)OCCO2 [Compound 17, (8S)—N-(4-Carbamimidoylbutyl)-7-{2-[(4-phenoxyphenyl)formamido]acetyl}-1,4-dioxa-7-azaspiro[4.4]nonane-8-carboxamide]"
5,100 to 1000 nM,"N=C(N)c1csc(CNC(=O)[C@@H]2CCCN2C(=O)NNC(=O)c2ccc(Oc3ccccc3)cc2)c1 [Compound 36, (S)-N-((4-carbamimidoylthiophen-2-yl)methyl)-1-(2-(4-phenoxybenzoyl)hydrazine-1-carbonyl)pyrrolidine-2-carboxamide]"
6,> 1000 nM,"Nc1ccc(CCNC(=O)[C@@H]2CC3(CN2C(=O)CNC(=O)c2ccc(Oc4ccccc4)cc2)OCCO3)cc1 [Compound 23, (8S)—N-[2-(4-Aminophenyl)ethyl]-7-{2-[(4-phenoxyphenyl)formamido]acetyl}-1,4-dioxa-7-azaspiro[4.4]nonane-8-carboxamide]"

# Same assay, conditions: Table 2; C1s purified from human serum, 1.16 nM; substrate Z-L-Lys-SBzl; read-out: C1s Protease Activity
row,SMILES,IC50
1,"N=C(N)c1csc(CNC(=O)[C@@H]2CCCN2C(=O)CNC(=O)CCCCCc2ccccc2)c1 [Compound 81, (S)-N-((4-carbamimidoylthiophen-2-yl)methyl)-1-((6-phenylhexanoyl)glycyl)pyrrolidine-2-carboxamide]",< 100 nM
2,"Cc1cc(C(=O)NCC(=O)N2CC3(C[C@H]2C(=O)NCc2nc(C(=N)N)cs2)OCCO3)ccc1Oc1ccccc1 [Compound 49, (S)-N-((4-carbamimidoylthiazol-2-yl)methyl)-7-((3-methyl-4-phenoxybenzoyl)glycyl)-1,4-dioxa-7-azaspiro[4.4]nonane-8-carboxamide]",< 100 nM
3,"CCCCCC(=O)NCC(=O)N1CCC[C@H]1C(=O)NCc1cc(C(=N)N)cs1 [Compound 82, (S)-N-((4-carbamimidoylthiophen-2-yl)methyl)-1-(hexanoylglycyl)pyrrolidine-2-carboxamide]",100 to 1000 nM
4,"CCCCCCCCCC(=O)NCC(=O)N1CCC[C@H]1C(=O)NCc1cc(C(=N)N)cs1 [Compound 86, (S)-N-((4-carbamimidoylthiophen-2-yl)methyl)-1-(decanoylglycyl)pyrrolidine-2-carboxamide]",< 100 nM
5,"CCCCCCCCC(=O)NCC(=O)N1CCC[C@H]1C(=O)NCc1cc(C(=N)N)cs1 [Compound 85, (S)-N-((4-carbamimidoylthiophen-2-yl)methyl)-1-(nonanoylglycyl)pyrrolidine-2-carboxamide]",< 100 nM
6,"CCCOc1ccc(C(=O)NCC(=O)N2CCC[C@H]2C(=O)NCc2cc(C(=N)N)cs2)cc1 [Compound 77, (S)-N-((4-carbamimidoylthiophen-2-yl)methyl)-1-((4-propoxybenzoyl)glycyl)pyrrolidine-2-carboxamide]",< 100 nM

# Continued, values first:
row,IC50,SMILES
1,100 to 1000 nM,"CCOc1ccc(C(=O)NCC(=O)N2CCC[C@H]2C(=O)NCc2cc(C(=N)N)cs2)cc1 [Compound 76, (S)-N-((4-carbamimidoylthiophen-2-yl)methyl)-1-((4-ethoxybenzoyl)glycyl)pyrrolidine-2-carboxamide]"
2,> 1000 nM,"CC(N)c1csc(CNC(=O)[C@@H]2CCCN2C(=O)CNC(=O)c2ccc(Oc3ccccc3)cc2)c1 (stereo partly drawn) [Compound 60, (2S)-N-((4-(1-aminoethyl)thiophen-2-yl)methyl)-1-((4-phenoxybenzoyl)glycyl)pyrrolidine-2-carboxamide]"
3,< 100 nM,"N=C(N)c1csc(CNC(=O)[C@@H]2CCCN2C(=O)CNC(=O)CCCCOc2ccccc2)c1 [Compound 68, (S)-N-((4-carbamimidoylthiophen-2-yl)methyl)-1-((5-phenoxypentanoyl)glycyl)pyrrolidine-2-carboxamide]"
4,< 100 nM,"Cc1cc(C(=O)NCC(=O)N2CC3(C[C@H]2C(=O)NCc2cc(C(=N)N)cs2)OCCO3)ccc1Oc1ccccc1 [Compound 47, (S)-N-((4-carbamimidoylthiophen-2-yl)methyl)-7-((3-methyl-4-phenoxybenzoyl)glycyl)-1,4-dioxa-7-azaspiro[4.4]nonane-8-carboxamide]"
5,< 100 nM,"Cc1cc(C(=O)NCC(=O)N2CCC[C@H]2C(=O)NCc2cc(C(=N)N)cs2)ccc1Oc1ccccc1 [Compound 39, (S)-N-((4-carbamimidoylthiophen-2-yl)methyl)-1-((3-methyl-4-phenoxybenzoyl)glycyl)pyrrolidine-2-carboxamide]"
6,< 100 nM,"CCCCCc1cc(C(=O)NCC(=O)N2CCC[C@H]2C(=O)NCc2cc(C(=N)N)cs2)ccc1Oc1ccccc1 [Compound 42, (S)-N-((4-carbamimidoylthiophen-2-yl)methyl)-1-((3-pentyl-4-phenoxybenzoyl)glycyl)pyrrolidine-2-carboxamide]"

# Same assay, conditions: Table 3; C1s purified from human serum, 1.16 nM; substrate Z-L-Lys-SBzl; read-out: C1s Protease Activity
row,SMILES,IC50
1,"Cc1ccccc1O[C@H]1C[C@@H](C(=O)NCc2cc(C(=N)N)cs2)N(C(=O)CNC(=O)c2ccc(Oc3ccccc3)cc2)C1 [Compound 105, (2S,4S)-N-((4-carbamimidoylthiophen-2-yl)methyl)-1-((4-phenoxybenzoyl)glycyl)-4-(o-tolyloxy)pyrrolidine-2-carboxamide]",< 100 nM
2,"N=C(N)c1csc(CNC(=O)[C@@H]2C[C@@H]3CCCC[C@@H]3N2C(=O)CNC(=O)c2ccc(Oc3ccccc3)cc2)c1 [Compound 102, (2S,3aS,7aS)-N-((4-carbamimidoylthiophen-2-yl)methyl)-1-((4-phenoxybenzoyl)glycyl)octahydro-1H-indole-2-carboxamide]",< 100 nM
3,"C[C@@]12C[C@@H]1N(C(=O)CNC(=O)c1ccc(Oc3ccccc3)cc1)[C@H](C(=O)NCc1ccc(C(=N)N)s1)C2 [Compound 107, (1S,3S,5S)-N-((5-carbamimidoylthiophen-2-yl)methyl)-5-methyl-2-((4-phenoxybenzoyl)glycyl)-2-azabicyclo[3.1.0]hexane-3-carboxamide]",< 100 nM

# The next lines start with the values.
row,IC50,SMILES
1,< 100 nM,"N=C(N)c1csc(CNC(=O)C2C3CCC(C3)N2C(=O)CNC(=O)c2ccc(Oc3ccccc3)cc2)c1 (stereo in doubt) [Compound 96, (1R,3R,4S)-N-((4-carbamimidoylthiophen-2-yl)methyl)-2-((4-phenoxybenzoyl)glycyl)-2-azabicyclo[2.2.1]heptane-3-carboxamide]"
2,< 100 nM,"N=C(N)c1csc(CNC(=O)[C@@H]2C[C@@H](C(F)(F)F)CN2C(=O)CNC(=O)c2ccc(Oc3ccccc3)cc2)c1 [Compound 98, (2S,4R)-N-((4-carbamimidoylthiophen-2-yl)methyl)-1-((4-phenoxybenzoyl)glycyl)-4-(trifluoromethyl)pyrrolidine-2-carboxamide]"
3,< 100 nM,"N=C(N)c1csc(CNC(=O)[C@@H]2C[C@](F)(CF)CN2C(=O)CNC(=O)c2ccc(Oc3ccccc3)cc2)c1 [Compound 106, (2S,4R)-N-((4-carbamimidoylthiophen-2-yl)methyl)-4-fluoro-4-(fluoromethyl)-1-((4-phenoxybenzoyl)glycyl)pyrrolidine-2-carboxamide]"
